Measurements from patent publication US12498323B2, “Use of fluorescent imaging plate reader (FLIPR) high-throughput real-time fluorescence detection and analysis system in detection of calcium signals in plants” (Guizhou Normal University, priority 2022, dated 2025).

Key:
Type in all cases: cell-based
[1] = test system: protoplasts of the Primula rupestris leaves; assay: FLIPR calcium signal detection in protoplasts of Primula rupestris leaves
Experimental: (1) The protoplasts prepared in Example 1 were taken out, and mixed with the calcium dye according to a ratio of protoplast: calcium dye=1:1, and a group added with only a calcium dye and without protoplasts was taken as a control group, and added to a 96-well plate of a cell plate, as shown in Table 1:
(2) A buffer (helps buffer) was used to prepare a 96-well plate of the cell plate with different concentrations of CaCl2 solutions: CaCl2 (0, 10, 20, 40, 60, 80, 100, 150, 200, 300, and 500 mM). A group without adding protoplasts was taken as a control group.
(3) The cell plate was wrapped with a plastic wrap, and incubated at 37° C. for 1 h. After the incubation, the two plates were balanced, centrifuged at 600 rpm at 4° C. for 1-2 min, and loaded on the machine.
(4) The above experiment was repeated for 10 times to observe whether the results were consistent. The order of concentrations from top to bottom in the legend on the right in FIG. 3 and the order of concentrations from left to right in Table 2 can be in one-to-one correspondence.
The buffer was used to prepare a 96-well plate of the cell plate with different concentrations of CaCl2 solutions: CaCl2 (0, 100, 200, 220, 240, 260, 280, 300, 350, 400, and 450 mM). The cell plate was wrapped with a plastic wrap, and incubated at 37° C. for 1 h. After the incubation, the two plates were balanced, centrifuged at 600 rpm at 4° C. for 1-2 min, and loaded on the machine. The order of concentrations from top to bottom in the legend on the right in FIG. 5 and the order of concentrations from left to right in Table 3 can be in one-to-one correspondence:
Using step (1) in Example 2, a buffer was used to prepare a 96-well plate of a cell plate with different concentrations of EGTA solutions: EGTA solution (0, 0.1, 0.5, 1.0, 5, 10, 25, 50, 100, 150, and 200 mM).
The cell plate was wrapped with a plastic wrap, and incubated at 37° C. for 1 h. After the incubation, the two plates were balanced, centrifuged at 600 rpm at 4° C. for 1-2 min, and loaded on the machine.
The above experiment was repeated for 10 times to observe whether the results were consistent. The order of concentrations from top to bottom in the legend on the right in FIG. 7 and the order of concentrations from left to right in Table 4 can be in one-to-one correspondence.
(1) The protoplasts prepared in Example 1 were taken out, and mixed with the calcium dye according to a ratio of protoplast: calcium dye=1:1 till a total of 150 μL, and a group added with only a calcium dye and without protoplasts was taken as a control group, and added to a 96-well plate of a cell plate.
(2) 220 mM of CaCl2 solution and 100 μM of EGTA solution were added to the 96-well plate of the cell plate in step (1).
(4) The above experiment was repeated for 10 times to observe whether the results were consistent.
The difference was that the EGTA solution and the CaCl2 solution in step (3) had different concentrations, and the corresponding parameters are shown in Table 5: […]

[2] = test system: protoplasts of the Primula rupestris sepals; assay: FLIPR calcium signal detection in protoplasts of Primula rupestris sepals
Source text: According to the method in Example 4, the EGTA solution and the CaCl2 solution were combined to treat the change of the protoplasts of the Primula rupestris sepals, and the parameters of the examples and comparative examples are shown in Table 6: […]

[3] = test system: protoplasts of the Primula rupestris petals; assay: FLIPR calcium signal detection in protoplasts of Primula rupestris petals
Source text: According to the method in Example 4, the EGTA solution and the CaCl2 solution were combined to treat the change of the protoplasts of the Primula rupestris petals, and the parameters of the examples and comparative examples are shown in Table 7:

[4] = test system: protoplasts of the valerian leaves; assay: FLIPR calcium signal detection in protoplasts of valerian leaves
[5] = method of Example 2, FIG. 18-19
[6] = method of Example 2, FIG. 25-26

Structure (SMILES) | concentration of the CaCl2 solution at which the calcium signal surges significantly ([1]; first series 0-500 mM CaCl2, 37° C. 1 h, FIG. 2-3) | concentration of the CaCl2 solution at which the calcium signal surges significantly ([1]; refined series 0-450 mM CaCl2, 37° C. 1 h, FIG. 4-5) | confirmed concentration of the CaCl2 solution (exogenous calcium signal stimulation) ([1]; refined series, FIG. 4-5) | CaCl2 concentration at which the calcium signal changes significantly ([2]; method of Example 2, FIG. 11-12) | CaCl2 concentration range in which the calcium signal changes significantly [3, 5] | concentration of the CaCl2 solution at which the calcium signal surges significantly [3, 5] | CaCl2 concentration range in which the calcium signal changes significantly [4, 6] | concentration of the CaCl2 solution at which the calcium signal surges significantly [4, 6] | effect of composite reaction of EGTA solution and CaCl2 solution on calcium signal fluorescence ([1]; EGTA plus CaCl2 1:1, Table 5 settings, FIG. 8-9) | EGTA solution concentration with relatively excellent chelation effect on the calcium signal ([1]; EGTA series 0-200, 37° C. 1 h, FIG. 6-7) | effect of composite reaction of EGTA solution and CaCl2 solution on calcium signal fluorescence ([2]; EGTA plus CaCl2, Table 6 settings, FIG. 15-16) | confirmed concentration of the calcium signal chelator EGTA solution ([2]; method of Example 3, FIG. 13-14) | effect of composite reaction of EGTA solution and CaCl2 solution on calcium signal fluorescence ([3]; EGTA plus CaCl2, Table 7 settings, FIG. 22-23) | confirmed concentration of the calcium signal chelator EGTA solution ([3]; method of Example 3, FIG. 20-21) | effect of composite reaction of EGTA solution and CaCl2 solution on calcium signal fluorescence ([4]; EGTA plus CaCl2, Table 8 settings, FIG. 29-30) | confirmed concentration of the calcium signal chelator EGTA solution ([4]; method of Example 3, FIG. 27-28)
[Ca+2].[Cl-].[Cl-] [CaCl2] | 300 mM | 220 mM | 220 to 450 mM | 350 mM | 350 to 450 mM | 350 mM | 220 to 450 mM | 220 mM | – | – | – | – | – | – | – | –
O=C(O)CN(CCOCCOCCN(CC(=O)O)CC(=O)O)CC(=O)O [EGTA, ethylene glycol tetraacetic acid] | – | – | – | – | – | – | – | – | can chelate the change of the fluorescence caused by the exogenous calcium signal | 5 to 200 µM | can chelate the change of the fluorescence caused by the exogenous calcium signal | 5 to 200 µM | can chelate the change of the fluorescence caused by the exogenous calcium signal | 5 to 200 µM | can chelate the change of the fluorescence caused by the exogenous calcium signal | 0.1 to 200 µM
